Experimental data: patent publication US20070219159A1, “CYCLODEXTRIN COMPOSITIONS AND METHODS OF TREATING VIRAL INFECTIONS” (priority 2002, published 2007)
Read-outs that look alike come from different tables or passages of the source.

Experiments:
[1] = system: West Nile; assay: In vitro antiviral screening (Table 1), West Nile
[2] = system: MV
[3] = system: HCV; assay: In vitro anti-HCV assay in HCV RNA-replicating cell line AVA5; type: cell-based; settings: HCV
Description: (§1) The antiviral activity of test compounds were assayed in the stably HCV RNA-replicating cell line. AVA5, derived by transfection of the human hepatoblastoma cell line, Huh^7 (Blight et al., 2000). Experimental drugs were added to dividing cultures once daily for three days. Media was changed with each addition of compound. Cultures generally started the assays at 50% confluence and reached confluence during the last day of treatment. HCV RNA and cellular β-actin RNA levels were assessed 24 hours after the last dose of compound using dot blot hybridization. Assays were conducted using a single dose of test compound (in triplicate cultures).
(§2) Both HCV and β-actin RNA levels in the treated cultures were expressed as a percentage of the mean levels of RNA detected in untreated cultures. β-actin RNA levels were used both as a measure of toxicity, and to normalize the amount of cellular RNA in each sample. A level of 30% or less HCV RNA (relative to control cultures) was considered to be a positive antiviral effect, and a level of 50% or less β-actin RNA (relative to control cultures) is considered to be a cytotoxic effect.
(§3) Dividing cultures of AVAB cells were treated once daily for three days (media was changed with each addition of compound) with 4 concentrations of test compounds (3 cultures per concentration). A total of 6 untreated control cultures, and triplicate cultures treated with 10, 3, and 1 IU/ml α-interferon (active antiviral with no cytotoxicity), and 100, 10, and 1 μM ribavir ([…]) served as controls. HCV RNA and cellular β-actin FNA levels were assessed 24 hours after the last dose of compound using dot blot hybridization. β-actin RNA levels were used to normalize the amount of cellular RNA in each sample.
(§4) Toxicity analyses were performed on separate plates from those used for the antiviral assays. Cells for the toxicity analyses were cultured and treated with test compounds with the same schedule and under identical culture conditions used for the antiviral evaluations. Each compound was tested at 4 concentrations, each in triplicate cultures. Uptake of neutral red dye was used to determine the relative level of toxicity 24 hours following the last treatment. The absorbance of internalized dye at […] (A510) was used for the quantitative analysis. Values in test cultures were compared to 9 cultures of untreated cells maintained on the same plate as the test cultures.
(§5) Assays similar to those described above were conducted.

[4] = system: vaccinia Western Reserve strain (WR); type: cell-based
[5] = system: Vero cells; settings: 48 hours exposure; extrapolated from cell killing graph (FIG. 5)
[6] = system: VEE
[7] = system: Pichinde
[8] = system: Punta Toro
[9] = system: Flu A
[10] = In vitro anti-HCV assay in HCV RNA-replicating cell line AVA5; type: cell-based; settings: human, AVA5 cells (HCV RNA-replicating Huh7 line); toxicity control, no antiviral activity; read-out: approximate CC90
Description: as §1, §2, §3, §4, §5

[11] = HSV-infected cells; cited from earlier work
[12] = system: Measles
[13] = system: Resp syncytial
[14] = system: Cowpox
[15] = system: HSV-1; settings: in general 1000-fold less drug than Examples 1-6 and 10
[16] = system: Ad
[17] = system: HRV
[18] = system: HSV-1 strain KOS1.1; assay: CPE reduction assay in Vero cells, HSV-1; type: cell-based; settings: HSV-1; final concentrations up to 8 mg/ml
[19] = system: MCMV
[20] = system: HHV-6
[21] = system: HCMV
[22] = system: Vaccinia
[23] = system: Rhino
[24] = system: Flu B
[25] = system: VZV
[26] = system: EBV
[27] = system: HHV-7
[28] = system: RSV
[29] = system: HSV-2; settings: in general 1000-fold less drug than Examples 1-6 and 10
[30] = system: HSV-2 strain MS; assay: CPE reduction assay in Vero cells, HSV-2; type: cell-based; settings: HSV-2; final concentrations up to 8 mg/ml
[31] = system: Yellow fever
[32] = system: PIV

For methyl-β-cyclodextrin [MBCD], the “SI = CC50/EC50” value [1] was 0 (?), the “SI = CC50/EC50” value [2] was 0 and the “S.I. for HCV” value [3] was 1.69. For the same compound, the “anti-vaccinia virus activity (cytopathic effect versus untreated wells)” value ([4]; MBCD 4 to 4.5 mg/ml, β-CD 7.2 mg/ml, pre- and post-infection, 48 hours) was “much fewer and smaller areas of cytopathic effect”, the “concentration at which anti-vaccinia virus activity was observed” value ([4]; flat portion of the cell killing curve) was < 4.5 mg/mL and the “CC50 at 48 hours for Vero cells” value [5] was “approximately 5.5 mg/ml”. For the same compound, the “SI = CC50/EC50” value [6] was 0, the “SI = CC50/EC50” value [7] was 0 and the “SI = CC50/EC50” value ([8]; Punta Toro) was 0. For the same compound, the “SI = CC50/EC50” value ([9]; Flu A) was 0.

Compound `NC(=O)c1ncn([C@@H]2O[C@H](CO)[C@@H](O)[C@H]2O)n1` [ribavirin, reference compound] has a CC90 at 3 days [10] of ~100 µM.

In the case of penciclovir triphosphate, the intracellular half life [11] is given as 12 h.

With `OC[C@H]1O[C@@H]2O[C@H]3[C@H](O)[C@@H](O)[C@@H](O[C@H]4[C@H](O)[C@@H](O)[C@@H](O[C@H]5[C@H](O)[C@@H](O)[C@@H](O[C@H]6[C@H](O)[C@@H](O)[C@@H](O[C@H]7[C@H](O)[C@@H](O)[C@@H](O[C@H]1[C@H](O)[C@H]2O)O[C@@H]7CO)O[C@@H]6CO)O[C@@H]5CO)O[C@@H]4CO)O[C@@H]3CO` [ACD, α-cyclodextrin] the “SI = CC50/EC50” value [12] was 0, the “SI = CC50/EC50” value [1] was 0 and the “SI = CC50/EC50” value [2] was 0. The “SI = CC50/EC50” value [13] was 0, the “SI = CC50/EC50” value [14] was 0 and the “SI = CC50/EC50” value [15] was 0. The “SI = CC50/EC50” value [16] was 0, the “SI = CC50/EC50” value [17] was 0 and the “S.I. for HCV” value [3] was 0.72. The “SI = CC50/EC50” value [6] was 0, the “antiviral activity in infected Vero cells” value [18] was “no significant antiviral activity” and the “SI = CC50/EC50” value [19] was 0. The “SI = CC50/EC50” value [20] was 0, the “SI = CC50/EC50” value [21] was 0 and the “SI = CC50/EC50” value [22] was 0. For the same compound, the “SI = CC50/EC50” value [7] was 0, the “SI = CC50/EC50” value [23] was 0 and the “SI = CC50/EC50” value [24] was 0. For the same compound, the “SI = CC50/EC50” value [8] was 0, the “SI = CC50/EC50” value [25] was 0 and the “SI = CC50/EC50” value [26] was >1.5. For the same compound, the “SI = CC50/EC50” value [27] was 0, the “SI = CC50/EC50” value [28] was 0 and the “SI = CC50/EC50” value [29] was 0. The “antiviral activity in infected Vero cells” value [30] was “no significant antiviral activity”, the “SI = CC50/EC50” value [31] was 0 and the “SI = CC50/EC50” value [9] was 0. The “SI = CC50/EC50” value [32] was 0.
